Assay results taken from PMC11381544 (Nature Communications, 2024).

Test system: P3H1 within the PCP complex
Experiment: 2-OG dependent oxygenase activity
Assay type: biochemical, human
Settings: Succinate-Glo assay, Fig. 1g, Fig. 3f, Supplementary Fig. 1f

Substance | 2OG-Fe (II) oxygenase / P3H1 activity, in words | 2OG-Fe (II) oxygenase / P3H1 activity, in words (listed as PPIB^R95A) | 2OG-Fe (II) oxygenase / P3H1 activity, in words (listed as R95A)
cyclosporin A [CsA, reference compound] | hydroxylation enhancement was absent | – | –
PCP-PPIBR95A: PCP complex with PPIB enzymatic mutation at the PI-site, R95A | – | elevated P3H1 activities | enhancing P3H1 activities
peak HW: high molecular weight elution fractions corresponding to the PCP dual-ternary complex | slightly lower P3H1 activity | – | –
PCP ternary complex: low molecular weight elution fractions corresponding to the PCP ternary complex | inhibited upon depletion of ferrous ions | – | –
